Literature values in paper PMC2074382 (British Journal of Cancer, 1996).
Where a name gives a salt, the structure may show the parent alone.

Legend:
[1] = tested on: HT-29 and SW-48 colon, PC-3 prostate, MX-1 breast, H460 lung, SKOV3 ovarian and KB epidermoid carcinomas xenografts; details: HT-29, SW-48, PC-3, MX-1, H460, SKOV3, KB; ref Emerson et al., 1993, 1994, 1995; cited from earlier work
bone marrow cultures = details: ref Emerson et al., 1995; cited from earlier work

## CC[C@@]1(O)C(=O)OCc2c1cc1n(c2=O)Cc2c-1nc1cc3c(cc1c2CN1CCN(C)CC1)OCCO3 [GI147211, [7 - (methylpiperazinomethylene) - 10,11 - ethylene-dioxy-20(S)] camptothecin dihydrochloride]
[1]
  cytotoxicity against xenografts of human cancers: cytotoxicity against several xenografts of human cancers
Bone marrow cultures
  myelotoxicity compared with topotecan: more myelotoxic than topotecan
